Measured values published in patent US10894817B2, “Fatty acid modified urocortin-2 analogs for the treatment of diabetes and chronic kidney disease” (priority 2016, dated 2021).
Starred links: 1 amine or outer side, 2 acyl side, 3 side chain; linkers in the order of their positions; H or OH if unused. Non-standard residues stand in square brackets, D forms with d. Residues, ends and D or L forms follow the SMILES beside them. Groups on a side chain read outwards from the residue. *: point of attachment. C20 diacid = O=C(O)CCCCCCCCCCCCCCCCCCC(=O)*; γGlu = O=C(O)[C@H](CCC(=O)[*:2])N[*:1]; NMeI = CC[C@H](C)[C@H](NC)C(=O)O; AEEA = NCCOCCOCC(=O)O

System: remnant kidney mice
Experiment: Mouse remnant kidney model of hypertensive nephropathy (Example 4, 8 weeks)
Type: in vivo
Settings: 2.6 nmol/kg dose group
Experimental: A mouse remnant kidney model (“remnant”) involving surgical reduction of ¾ of the entire renal mass is used as a preclinical model of hypertensive renal disease (Kidney Int. 64(1):350-5, (2003)).
Surgical reduction of renal mass (N=32 mice) (obtained by Taconic, Inc.) is performed by Taconic, Inc. in male 129S6 mice at 9-10 weeks of age. Randomization into 4 equivalent groups of 8 remnant kidney mice is done at 17 weeks post-surgery by urine albumin to creatinine ratio (ACR) and body weight. […]
Body weight is determined at baseline and at termination with a Metler Toledo Balance.
The heart and kidney are removed at necropsy and weighed on a Metler Toledo Balance. […] Serum is analyzed for creatinine on a Roche Hitachi Modular Analytics P analyzer with reagents from Roche. […]
Urine albumin and creatinine are determined on a Roche Hitachi Modular Analytics P analyzer. Urine creatinine is determined with the Creatinine Plus reagent by Roche. […]
Remnant kidneys are removed at study termination, fixed in formalin and processed for paraffin sectioning according to standard methodology. Sections of kidney are evaluated for renal lesions by a board certified pathologist. […]
Pathology data are statistically evaluated with R software by fitting an ordered logit model to the categorical scores, and then comparing the differences between different treatment groups. […]

Structure (SMILES): CC[C@H](C)[C@H](NC)C(=O)N[C@H](C(=O)N[C@@H](CC(C)C)C(=O)N[C@@H](CO)C(=O)N[C@@H](CC(C)C)C(=O)N[C@@H](CC(=O)O)C(=O)N[C@H](C(=O)N1CCC[C@H]1C(=O)N[C@H](C(=O)NCC(=O)N[C@@H](CC(C)C)C(=O)N[C@@H](CC(C)C)C(=O)N[C@@H](CCC(N)=O)C(=O)N[C@H](C(=O)N[C@@H](CC(C)C)C(=O)N[C@@H](CC(C)C)C(=O)N[C@@H](CCC(=O)O)C(=O)N[C@@H](CCC(N)=O)C(=O)N[C@@H](CCC(=O)O)C(=O)N[C@@H](CCCCN)C(=O)N[C@@H](CCC(N)=O)C(=O)N[C@@H](CCC(=O)O)C(=O)N[C@@H](CCCCN)C(=O)N[C@@H](CCC(=O)O)C(=O)N[C@@H](CCCCN)C(=O)N[C@@H](CCC(N)=O)C(=O)N[C@@H](CCC(N)=O)C(=O)N[C@@H](C)C(=O)N[C@@H](CCCCNC(=O)COCCOCCNC(=O)COCCOCCNC(=O)CC[C@H](NC(=O)CC[C@H](NC(=O)CCCCCCCCCCCCCCCCCCC(=O)O)C(=O)O)C(=O)O)C(=O)N[C@H](C(=O)N[C@@H](CC(N)=O)C(=O)N[C@@H](C)C(=O)N[C@@H](CCC(N)=O)C(=O)N[C@H](C(=O)N[C@@H](CC(C)C)C(=O)N[C@@H](C)C(=O)N[C@@H](CCC(N)=O)C(=O)N[C@H](C(N)=O)C(C)C)[C@@H](C)CC)[C@@H](C)O)[C@@H](C)CC)[C@@H](C)CC)C(C)C)C(C)C [Example 4] (H-[NMeI]VLSLDVPIGLLQILLEQEKQEKEKQQAK([AEEA-AEEA-γGlu-γGlu-C20 diacid])TNAQILAQV-NH2)
- deaths during the study: one
